From patent US4404215A, “Piperidyl phenyl trifluoroethanols” (Science Union et Cie, priority 1978, dated 1983)
Values belong to the compound of their own block, whether it stands above or below them.

Experiments:
solubility = assay type: physicochemical; conditions: for solubility in organic solvents: most of the organic solvents
[1] = nephrotoxicity and hepatotoxicity context; cited from earlier work
[2] = antipyretic effect, baker yeast hyperthermia (LOUX); assay type: in vivo; conditions: rats; paracetamol 50 to 500 mg
Procedure: The antipyretic effect of the compounds of formula I has been determined according to the method described by J. J. LOUX and cowork. Toxicol. and Appl. Pharmacol. 22 (1972) 672. According to this method a hyperthermic crisis occurs in the rats after subcutaneous injection of baker yeast.
The compounds to be tested are administered orally in a suspension of an arabic gum solution 19 hours after the injection of yeast.
The body temperatures are measured from 1 to 5 hours after the ingestion of the compounds of formula I by means of a thermistor. The dosages tested range from 25 to 200 mg/kg.
The increase of body temperature in the control rats is about 2° in comparison of that of the untreated rats. The animals which receive the compounds of formula I show only a moderate increase of temperature, mainly 3 and 4 hours after the ingestion of the tested compound. The highest dosages (150 and 200 mg/kg) caused a return to the initial temperature in the treated animals.
In similar experimental conditions, batches of rats receive paracetamol at dose ranging from 50 to 500 mg.

solubility in ethanol (solubility; ethanol): soluble | solubility in methanol (solubility; methanol): soluble | solubility in water (solubility): insoluble
SMILES: CC(=O)Nc1ccc(C(O)C(F)(F)F)cc1 (centres unmarked) [Example 1, 1-(4-acetamidophenyl) 2,2,2-trifluoroethanol]

solubility in organic solvents (solubility): soluble | solubility in water (solubility): insoluble
SMILES: CC(C)C(=O)Nc1ccc(C(O)C(F)(F)F)cc1 (centres unmarked) [Example 2, 1-(4-isobutyramidophenyl) 2,2,2-trifluoroethanol]

Second part, the compound before the results:

SMILES: OC(c1ccc(NC2CCN(CCc3ccccc3)CC2)cc1)C(F)(F)F (centres unmarked) [Example 9, 4-[4-(2,2,2-trifluoro 1-hydroxyethyl)phenylamino] 1-(2-phenylethyl) piperidine]
solubility in N/10 hydrochloric acid (solubility; just calculated amount of N/10 hydrochloric acid): soluble

SMILES: CC(=O)Nc1ccc(O)cc1 [paracetamol]
toxicity [1]: well-known toxicity | useful dose which curbs significantly the increase of temperature, relative to compounds of formula I [2]: about twice of that of the compounds of formula I

SMILES: CCOC(c1ccc(NC(C)=O)cc1)C(F)(F)F (centres unmarked) [Example 10, 1-(4-acetamidophenyl) 1-ethoxy 2,2,2-trifluoroethane]
solubility in organic solvents (solubility): soluble | solubility in water (solubility): insoluble

SMILES: CCCCCCCCCCCCCCCCNc1ccc(C(O)C(F)(F)F)cc1 (racemic) [Example 8, 1-(4-nhexadecylaminophenyl) 2,2,2-trifluoroethanol]
solubility in dilute solutions of acids (solubility; hydrochloric acid or acetic acid): soluble
